This is an account of results in ChEMBL document CHEMBL1149009, “Antitumor agents, 79. Cytotoxic antileukemic alkaloids from Brucea antidysenterica” (1986).

As usually defined, the T/C is the result in the treated group divided by that in the control group, in per cent.

What all share (type): functional
Assay [1] has as its system P388. The assay can be described thus: In vivo antitumor activity against mouse P388 cells at 200 mg/kg after 1 day.
Assay [2] concerns P388. The assay can be described thus: In vivo antitumor activity against mouse P388 cells at 25 mg/kg after 3 days.
The subject of the next assay is KB. As to the kind of experiment: Cytotoxicity against human KB cells. The conditions noted are these: for EC50: read-out: ED50 (the source's name).

In brackets after ≈: the same amount, converted by molar mass. Activity calls are given as the source filed them. The calls are words filed in the database; no cut-off is given here. Where only a bound is given, the exact number is not on record here.

In the assay with P388 [1], `O=c1[nH]cc(F)c(=O)[nH]1` [FLUOROURACIL] gave a T/C of 135%.

In the assay with P388 [2], `COc1cccc2c1c1c(OC)cnc3ccc(=O)n2c31` returned a T/C of 122%. In addition, the EC50 with KB is 1 µg/mL (≈ 3.57 µM).

Turning to `O=c1ccc2nccc3c4ccccc4n1c23`, the outcome in the assay on KB was inactive.

Turning to `O=c1ccc2nccc3c4c(O)cccc4n1c23`, in the assay on KB, the EC50 is not above 4 µg/mL.
